# Laboratory results reported in patent US8114590B2, “Diagnosis and treatment of chronic lymphocytic leukemia (CLL)” (The Regents of the University of California, priority 2005, dated 2012).
# Experiments:
# CLL-PBMC [1] = settings: literature (refs 8, 9, 13); cited from earlier work
# CLL-PBMC [2] = settings: 72 h
# Experimental: (§1) Apoptosis: PBMC (1 million cells/ml) from B-CLL patients or normal subjects were cultured in RPMI media supplemented with 10% FBS, L-glutamine and penicillin/streptomycin at 37° C. in 5% CO2 and treated with either vehicle or the PDE7 inhibitor BRL-50481 for 72 h. Apoptosis was assessed by flow cytometry as the percentage of cells stained with Annexin V and Propidium Iodide (PI) and analyzed by FACScan using CELLQuest software (Becton-Dickinson Immunocytometry System) (18).
# (§2) PBMC from CLL patients (n=10) and normal subjects (n=6) were grown in the absence or presence of BRL-50481 (10 μM, 30 μM and 100 μM) for 72 h.
# normal-PBMC = settings: 10, 30 and 100 μM, 72 h, normal subjects n=6
# Experimental: as §1, §2
# CD8+ T-lymphocytes = settings: 30 μM, literature (ref 25); cited from earlier work
# monocytes or macrophages = settings: 30 μM, literature (ref 25); cited from earlier work
compound,measurement,setting,value
CN(C(=O)CCCOc1ccc2[nH]c(=O)ccc2c1)C1CCCCC1 [cilostamide],induction of apoptosis in CLL-PBMC,CLL-PBMC [1],does not induce apoptosis
Cn1c(=O)c2[nH]cnc2n(C)c1=O [theophylline],induction of apoptosis in CLL-PBMC,CLL-PBMC [1],induces apoptosis
"Cc1ccc([N+](=O)[O-])cc1S(=O)(=O)N(C)C [BRL-50481, 3-(N,N-dimethylsulfonamido)-4-methyl-nitrobenzene]",dose dependence of apoptosis induction in CLL-PBMC,"CLL-PBMC [2]; 10 μM, 30 μM and 100 μM",consistently and dose-dependently induced apoptosis
same,increase in apoptosis in CLL-PBMC,"CLL-PBMC [2]; ≧30 uM, CLL patients n=10, relative to vehicle control",20-40%
same,induction of apoptosis in PBMC from normal subjects,normal-PBMC,not in PBMC from normal subjects
same,inhibition of IL-5-promoted proliferation of CD8+ T-lymphocytes,CD8+ T-lymphocytes,failed to inhibit
same,effect on TNFα release in monocytes or macrophages,monocytes or macrophages,little effect
